Experimental data reported in patent US4665083A, “Iminothiazolidine derivatives” (priority 1984, dated 1987).

How the values were obtained:
nicotine lethality = experiment: Inhibition of nicotine spasm / nicotine lethality; format: in vivo, mice; conditions: mice; for Therapeutical index (inhibition of nicotine lethality): LD50 and ED50 nicotine lethality; for ED50: Mus musculus, oral, 1 hour before 1.4 mg/kg i.v. nicotine, read-out: Inhibition of nicotine lethality ED50
Procedure: (5) Inhibition of nicotine spasm
The test is carried out on mice according to Stone.

acetic acid writhing = experiment: animal or person; format: in vivo; conditions: for Therapeutical index (analgesic effect, writhing test): LD50 and ED50 writhing test, mice; for ED50: Mus musculus, ip, read-out: Analgesic effect (writhing test) ED50
Procedure: (9) Analgesic effect on mice (writhing test)
The test is carried out on mice according to the modified method of Newbould. 0.75 percent acetic acid is administered to the animals in a volume of 20 ml/kg, intraperitoneally, and the characteristic "writhing reactions" are counted for a period of 5 minutes, starting from the fifth minute after challenge. […] The inhibition relative to the control group is evaluated in percentage.

narcosis = experiment: Potentiation of narcosis; conditions: for Therapeutical index (potentiation of narcosis): LD50 and ED50 narcosis; for ED50: read-out: Potentiation of narcosis ED50
yohimbine toxicity = experiment: animal or person; format: in vivo; conditions: for Therapeutical index (potentiation of yohimbine toxicity): LD50 and ED50 yohimbine toxicity, mice; for ED50: Mus musculus, ip, read-out: Potentiation of yohimbine toxicity ED50
Procedure: (4) Yohimbine toxicity test on mice.
The examination is performed according to Quinton's method. Each group of animals consisting of 10 mice are treated with the compounds to be tested and the vehicle without active agent, respectively. After one hour a sublethal dosage of yohimbine in a volume of 20 ml/kg body weight is administered to the test groups, intraperitoneally. The number of the dead animals is recorded 1 and 24 hours after the administration of yohimbine.

maximum electroshock = experiment: animal or person; format: in vivo; conditions: for Therapeutical index (inhibition of maximum electroshock): LD50 and ED50 electroshock, mice; for ED50: Mus musculus, po, read-out: Inhibition of maximum electroshock ED50
Procedure: (7) Maximum inhibition of electroshock
The examination is carried out on mice weighing 20 to 25 g according to Swinyard. Electroshocks having the parameters of 50 Hz, 45 mA and 0.4 sec are employed by means of corneal electrodes. The complete inhibition of the tonic spasm of the lower limb extensor is taken as the criterium of the anticonvulsive action.

pentatetrazole spasm = experiment: animal or person; format: in vivo; conditions: for Therapeutical index (inhibition of pentatetrazole spasm): LD50 and ED50 pentatetrazole spasm, mice; for ED50: Mus musculus, po, read-out: Inhibition of pentatetrazole spasm ED50
Procedure: (6) Inhibition of pentatetrazole spasm
The test is performed on mice according to a modified method of Banziger and Hane.

Tetrabenazine ptosis = experiment: animal or person; format: in vivo; conditions: for Therapeutical index (tetrabenazine ptosis antagonism): LD50 and ED50 tetrabenazine ptosis, mice; for ED50: Mus musculus, po, read-out: Tetrabenazine ptosis antagonism ED50
Procedure: (2) Tetrabenazine ptosis antagonism on mice
The tetrabenazine ptosis antagonism of the compounds are tested on groups consisting of 10 mice each. […] 30 minutes after the introduction of the active agent or the vehicle, 50 mg/kg of tetrabenazine (3-isobutyl-9,10-[…]-1,2,3,4,6,7-hexahydrobenzo[a]quinolizine-2-one) are administered, intraperitoneally, and the animals with ptosis are counted 30, 60, 90 and 120 minutes after the administration of the tetrabenazine.
Evaluation: the average ptosis value is calculated in each group, and the deviation from the average obtained for the control group (inhibition) is given in percentage. From the data obtained ED50 values are calculated.

in vivo = conditions: mouse, mice, oral, 7 days observation, Litchfield-Wilcoxon
Procedure: (1) Acute toxicity on mice
The acute toxicity is determined on mice of both sex (CFLP breed, body weight 18 to 22 g). For each dosis 6 animals are employed. The compounds tested are administered orally in a volume of 20 ml/kg body weight. After the administration the animals are observed for 7 days. During this period the animals are fed with standard mouse feed and water ad libitum. The toxicity values are determined according to Litchfield-Wilcoxon's method.

Reserpine ptosis = experiment: animal or person; format: in vivo
Procedure: (3) Reserpine ptosis antagonism on mice
Each group consisting of 10 mice are treated with 6 mg/kg of reserpine, subcutaneously. […] The animals with ptosis are counted 60 and 120 minutes after the administration of the compounds to be tested. Evaluation is carried out as given under point (2) above.

intestinal peristalsis = experiment: animal or person; format: in vivo
Procedure: (8) Antiperistaltic effect on mice
The antiperistaltic effect of the compounds is examined on mice weighing 20 to 25 g according to the method of Stickney and co-workers. Each dosis of the compound to be tested is administered, orally, 60 minutes prior to the administration of a 10 percent carbon suspension. […] 20 minutes after the administration of the carbon suspension, the animals are sacrificed, and the length of the entire small intestine as well as that of the small intestine filled with carbon are determined. The inhibition in relation to the control is calculated in percentage. […] From the values thus-transformed ED50 values are calculated.

Row | Structure (SMILES) | Therapeutical index (inhibition of nicotine lethality) (nicotine lethality) | ED50 (nicotine lethality) [mg/kg] | Therapeutical index (analgesic effect, writhing test) (acetic acid writhing) | ED50 (acetic acid writhing) [mg/kg] | Therapeutical index (potentiation of narcosis) (narcosis) | ED50 (narcosis) [mg/kg] | Therapeutical index (potentiation of yohimbine toxicity) (yohimbine toxicity) | ED50 (yohimbine toxicity) [mg/kg] | Therapeutical index (inhibition of maximum electroshock) (maximum electroshock) | ED50 (maximum electroshock) [mg/kg] | Therapeutical index (inhibition of pentatetrazole spasm) (pentatetrazole spasm) | ED50 (pentatetrazole spasm) [mg/kg] | Therapeutical index (tetrabenazine ptosis antagonism) (Tetrabenazine ptosis) | ED50 (Tetrabenazine ptosis) [mg/kg] | LD50 at 168 h (in vivo) [mg/kg] | Therapeutical index (reserpine ptosis antagonism) (Reserpine ptosis; LD50 and ED50 reserpine ptosis, mice) | ED50 (Reserpine ptosis; Mus musculus, sc, 1 h, read-out: Reserpine ptosis antagonism ED50) [mg/kg] | Therapeutical index (inhibition of intestinal peristalsis) (intestinal peristalsis; LD50 and ED50 intestinal peristalsis, mice) | ED50 (intestinal peristalsis; Mus musculus, po, read-out: Inhibition of intestinal peristalsis ED50) [mg/kg]
1 | CC1CN(c2ccc(Cl)cc2N)C(=N)S1.CCS(=O)(=O)O (stereo not shown) [Compound 12, 3-(2-amino-4-chlorophenyl)-2-imino-5-methylthiazolidine ethanesulfonate] | 100 | 6 | 17.7 | 34 | 14.0 | 41 | 13.3 | 45 | 30 | 12 | 40 | 15 | 83 | 7.2 | – | – | – | – | –
2 | CCCC(C)(COC(N)=O)COC(N)=O [Meprobamate, reference compound] | – | – | – | – | 4.2 | 260 | – | – | – | – | – | – | – | – | 1100 | – | – | – | –
3 | CCS(=O)(=O)O.CCS(=O)(=O)O.N=C1SCCN1c1ccc(Cl)cc1N [Compound 8, 3-(2-amino-4-chlorophenyl)-2-iminothiazolidine di(ethanesulfonate)] | 83.3 | 12 | 5.9 | 170 | – | – | 45.5 | 22 | 12.5 | 80 | 71.4 | 14 | 667 | 1.5 | 1000 | 50 | 20 | 10.5 | 95
